Our source for the relative viability values is the supplement of paper PMC10307832.

What all share (test): relative viability (nuclei count vs DMSO), 5 days (fraction); higher = more cells survive
Compound in the test “Venetoclax + Lapatinib”: CC1(C)CCC(CN2CCN(c3ccc(C(=O)NS(=O)(=O)c4ccc(NCC5CCOCC5)c([N+](=O)[O-])c4)c(Oc4cnc5[nH]ccc5c4)c3)CC2)=C(c2ccc(Cl)cc2)C1 [Venetoclax] + CS(=O)(=O)CCNCc1ccc(-c2ccc3ncnc(Nc4ccc(OCc5cccc(F)c5)c(Cl)c4)c3c2)o1 [Lapatinib] (partner 2 µM)
Put shortly:
(§1)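 Lung cancer cell lines, seeded in 1536-well plates, were treated the following day by pin tool with a single drug or with five library-drug doses (not always all listed) in √10 steps on top of a fixed anchor-drug dose. Cells were fixed and nuclei stained in one step after 5 days, and nuclei were counted. Relative viability is the nuclei count for treated wells divided by that for vehicle wells, reported as medians of duplicate plates.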

Compound in test [1]: Cn1cnc2c(F)c(Nc3ccc(Br)cc3Cl)c(C(=O)NOCCO)cc21 [Selumetinib] + CC(=O)c1c(C)c2cnc(Nc3ccc(N4CCNCC4)cn3)nc2n(C2CCCC2)c1=O [Palbociclib] (partner 0.5 µM)
Put shortly:
as §1

Compound in the test “Selumetinib + Luminespib”: Cn1cnc2c(F)c(Nc3ccc(Br)cc3Cl)c(C(=O)NOCCO)cc21 [Selumetinib] + CCNC(=O)c1noc(-c2cc(C(C)C)c(O)cc2O)c1-c1ccc(CN2CCOCC2)cc1 [Luminespib] (partner 0.01 µM)
Put shortly: as §1

Compound in the test “Selumetinib + Phenformin”: Cn1cnc2c(F)c(Nc3ccc(Br)cc3Cl)c(C(=O)NOCCO)cc21 [Selumetinib] + N=C(N)NC(=N)NCCc1ccccc1 [Phenformin] (partner 250 µM)
Put shortly: as §1

As to EMC-BAC-2, the relative viability is 0.88 with Venetoclax + Lapatinib (first compound 0.01 µM); 0.878 with Venetoclax + Lapatinib (first compound 0.03162 µM); 0.731 in the test with Venetoclax + Lapatinib (first compound 0.1 µM); 0.847 with Venetoclax + Lapatinib (first compound 0.3162 µM); 0.827 in the test with Venetoclax + Lapatinib (first compound 1 µM); 0.554 in test [1] (first compound 0.02 µM). Also, the relative viability in test [1] (first compound 0.06325 µM) amounted to 0.53; in test [1] (first compound 0.2 µM) it was 0.55; in test [1] (first compound 0.6325 µM), 0.52; in the test with Selumetinib + Luminespib (first compound 0.02 µM) it was 1.19; with Selumetinib + Luminespib (first compound 0.06325 µM) it was 1.18; with Selumetinib + Luminespib (first compound 0.2 µM), 1.1. Moreover, the relative viability in the test with Selumetinib + Luminespib (first compound 0.6325 µM) was determined as 1.12; with Selumetinib + Phenformin (first compound 0.02 µM) it was 0.559; with Selumetinib + Phenformin (first compound 0.06325 µM), 0.583; with Selumetinib + Phenformin (first compound 0.2 µM), 0.552; with Selumetinib + Phenformin (first compound 0.6325 µM), 0.537.

For LK-2, the relative viability with Venetoclax + Lapatinib (first compound 0.01 µM) is 0.973; with Venetoclax + Lapatinib (first compound 0.03162 µM), 0.99; in the test with Venetoclax + Lapatinib (first compound 0.1 µM), 0.846; with Venetoclax + Lapatinib (first compound 0.3162 µM), 0.894; with Venetoclax + Lapatinib (first compound 1 µM) it was 0.767; in test [1] (first compound 0.02 µM), 0.772. The relative viability in test [1] (first compound 0.06325 µM) came to 0.851; in test [1] (first compound 0.2 µM), 0.706; in test [1] (first compound 0.6325 µM), 0.802; with Selumetinib + Luminespib (first compound 0.02 µM), 0.151; in the test with Selumetinib + Luminespib (first compound 0.06325 µM), 0.136; with Selumetinib + Luminespib (first compound 0.2 µM) it was 0.19. The relative viability with Selumetinib + Luminespib (first compound 0.6325 µM) came to 0.165; with Selumetinib + Phenformin (first compound 0.02 µM), 0.561; in the test with Selumetinib + Phenformin (first compound 0.06325 µM) it was 0.576; with Selumetinib + Phenformin (first compound 0.2 µM), 0.539; with Selumetinib + Phenformin (first compound 0.6325 µM), 0.477.

NCI-H23: the relative viability worked out at 1.11 with Venetoclax + Lapatinib (first compound 0.01 µM); 1.14 with Venetoclax + Lapatinib (first compound 0.03162 µM); 0.942 with Venetoclax + Lapatinib (first compound 0.1 µM); 1.12 with Venetoclax + Lapatinib (first compound 0.3162 µM); 0.984 in the test with Venetoclax + Lapatinib (first compound 1 µM); 0.494 in test [1] (first compound 0.02 µM). Also, the relative viability in test [1] (first compound 0.06325 µM) came out at 0.393; in test [1] (first compound 0.2 µM) it was 0.354; in test [1] (first compound 0.6325 µM) it was 0.314; with Selumetinib + Luminespib (first compound 0.02 µM), 0.24; with Selumetinib + Luminespib (first compound 0.06325 µM), 0.215; with Selumetinib + Luminespib (first compound 0.2 µM) it was 0.188. Besides, the relative viability was 0.175 with Selumetinib + Luminespib (first compound 0.6325 µM); 0.834 in the test with Selumetinib + Phenformin (first compound 0.02 µM); 0.706 with Selumetinib + Phenformin (first compound 0.06325 µM); 0.774 in the test with Selumetinib + Phenformin (first compound 0.2 µM); 0.519 with Selumetinib + Phenformin (first compound 0.6325 µM).

Consider NCI-H441, for which the relative viability in test [1] (first compound 0.02 µM) was determined as 0.168; in test [1] (first compound 0.06325 µM) it was 0.154; in test [1] (first compound 0.2 µM), 0.157; in test [1] (first compound 0.6325 µM), 0.139; with Selumetinib + Luminespib (first compound 0.02 µM), 0.25; with Selumetinib + Luminespib (first compound 0.06325 µM), 0.272. Further, the relative viability with Selumetinib + Luminespib (first compound 0.2 µM) was found to be 0.204; with Selumetinib + Luminespib (first compound 0.6325 µM), 0.28; in the test with Selumetinib + Phenformin (first compound 0.02 µM) it was 0.886; in the test with Selumetinib + Phenformin (first compound 0.06325 µM), 0.674; with Selumetinib + Phenformin (first compound 0.2 µM) it was 0.667; with Selumetinib + Phenformin (first compound 0.6325 µM), 0.468.

Turning to NCI-H2009, the relative viability in the test with Venetoclax + Lapatinib (first compound 0.01 µM) came to 1.06; in the test with Venetoclax + Lapatinib (first compound 0.03162 µM), 0.902; in the test with Venetoclax + Lapatinib (first compound 0.1 µM) it was 1.05; with Venetoclax + Lapatinib (first compound 0.3162 µM), 1.01; in the test with Venetoclax + Lapatinib (first compound 1 µM), 0.851; in test [1] (first compound 0.02 µM), 0.15. Moreover, the relative viability in test [1] (first compound 0.06325 µM) amounted to 0.136; in test [1] (first compound 0.2 µM) it was 0.122; in test [1] (first compound 0.6325 µM), 0.143; with Selumetinib + Luminespib (first compound 0.02 µM), 0.826; with Selumetinib + Luminespib (first compound 0.06325 µM) it was 0.753; in the test with Selumetinib + Luminespib (first compound 0.2 µM), 0.558. Moreover, the relative viability stood at 0.371 in the test with Selumetinib + Luminespib (first compound 0.6325 µM); 0.428 with Selumetinib + Phenformin (first compound 0.02 µM); 0.359 in the test with Selumetinib + Phenformin (first compound 0.06325 µM); 0.29 with Selumetinib + Phenformin (first compound 0.2 µM); 0.217 with Selumetinib + Phenformin (first compound 0.6325 µM).

Take NCI-H1944: the relative viability came out at 0.859 with Venetoclax + Lapatinib (first compound 0.01 µM); 0.654 in the test with Venetoclax + Lapatinib (first compound 0.03162 µM); 0.802 in the test with Venetoclax + Lapatinib (first compound 0.1 µM); 0.853 in the test with Venetoclax + Lapatinib (first compound 0.3162 µM); 0.912 with Venetoclax + Lapatinib (first compound 1 µM); 0.303 in test [1] (first compound 0.02 µM). For the same cell line, the relative viability in test [1] (first compound 0.06325 µM) is 0.312; in test [1] (first compound 0.2 µM), 0.253; in test [1] (first compound 0.6325 µM), 0.231; in the test with Selumetinib + Luminespib (first compound 0.02 µM), 0.907; in the test with Selumetinib + Luminespib (first compound 0.06325 µM), 0.59; with Selumetinib + Luminespib (first compound 0.2 µM) it was 0.48. For the same cell line, the relative viability was 0.445 in the test with Selumetinib + Luminespib (first compound 0.6325 µM); 0.192 with Selumetinib + Phenformin (first compound 0.02 µM); 0.195 with Selumetinib + Phenformin (first compound 0.06325 µM); 0.157 with Selumetinib + Phenformin (first compound 0.2 µM); 0.168 with Selumetinib + Phenformin (first compound 0.6325 µM).

Take NCI-H1299: the relative viability worked out at 0.993 in the test with Venetoclax + Lapatinib (first compound 0.01 µM); 0.96 with Venetoclax + Lapatinib (first compound 0.03162 µM); 0.976 with Venetoclax + Lapatinib (first compound 0.1 µM); 0.959 in the test with Venetoclax + Lapatinib (first compound 0.3162 µM); 0.909 with Venetoclax + Lapatinib (first compound 1 µM).

For EPLC-272H, the relative viability with Venetoclax + Lapatinib (first compound 0.03162 µM) worked out at 0.87; with Venetoclax + Lapatinib (first compound 0.1 µM), 0.89; in the test with Venetoclax + Lapatinib (first compound 0.3162 µM), 1.08; in the test with Venetoclax + Lapatinib (first compound 1 µM) it was 0.921; in test [1] (first compound 0.02 µM) it was 0.271; in test [1] (first compound 0.06325 µM), 0.256. The relative viability in test [1] (first compound 0.2 µM) is 0.287; in test [1] (first compound 0.6325 µM), 0.232; with Selumetinib + Luminespib (first compound 0.02 µM), 0.22; in the test with Selumetinib + Luminespib (first compound 0.06325 µM), 0.276; in the test with Selumetinib + Luminespib (first compound 0.2 µM) it was 0.203; with Selumetinib + Luminespib (first compound 0.6325 µM), 0.171. Moreover, the relative viability was 0.26 with Selumetinib + Phenformin (first compound 0.02 µM), 0.223 with Selumetinib + Phenformin (first compound 0.06325 µM), 0.211 with Selumetinib + Phenformin (first compound 0.2 µM) and 0.223 in the test with Selumetinib + Phenformin (first compound 0.6325 µM).

As for NCI-H3122, the relative viability with Venetoclax + Lapatinib (first compound 0.01 µM) is 1.15; with Venetoclax + Lapatinib (first compound 0.03162 µM), 1.04; with Venetoclax + Lapatinib (first compound 0.1 µM), 1.05; in the test with Venetoclax + Lapatinib (first compound 0.3162 µM) it was 0.986; in the test with Venetoclax + Lapatinib (first compound 1 µM), 1.05; in test [1] (first compound 0.02 µM) it was 0.188. The relative viability in test [1] (first compound 0.06325 µM) was 0.139; in test [1] (first compound 0.2 µM) it was 0.132; in test [1] (first compound 0.6325 µM), 0.153; with Selumetinib + Luminespib (first compound 0.02 µM), 0.0969; with Selumetinib + Luminespib (first compound 0.06325 µM) it was 0.0828; with Selumetinib + Luminespib (first compound 0.2 µM) it was 0.0994. Further, the relative viability in the test with Selumetinib + Luminespib (first compound 0.6325 µM) was 0.0908; with Selumetinib + Phenformin (first compound 0.02 µM) it was 0.386; in the test with Selumetinib + Phenformin (first compound 0.06325 µM), 0.305; in the test with Selumetinib + Phenformin (first compound 0.2 µM), 0.287; in the test with Selumetinib + Phenformin (first compound 0.6325 µM), 0.286.
